SMILES strings stand for the structures.

Data set [1] is described as follows: Inhibition of P-glycoprotein NBD2 domain assessed as quenching of intrinsic fluorescence at 60 uM. The arrangement: scale not given: the % may be the effect or the level left.
Data set [2] can be described thus: Inhibition of P-glycoprotein NBD2 domain.
The target in data set [3] is ATP-dependent translocase ABCB1 (Homo sapiens, UniProt P08183). In words: Inhibition of P-glycoprotein-mediated daunomycin transport in human K562/R7 cells assessed as accumulation at 5 uM. The settings on record: k562/r7, 5 µM. More on the design: scale not given: the % may be the effect or the level left. The data set is classed as cell-based.
Sequence of ATP-dependent translocase ABCB1 (P08183 whole entry): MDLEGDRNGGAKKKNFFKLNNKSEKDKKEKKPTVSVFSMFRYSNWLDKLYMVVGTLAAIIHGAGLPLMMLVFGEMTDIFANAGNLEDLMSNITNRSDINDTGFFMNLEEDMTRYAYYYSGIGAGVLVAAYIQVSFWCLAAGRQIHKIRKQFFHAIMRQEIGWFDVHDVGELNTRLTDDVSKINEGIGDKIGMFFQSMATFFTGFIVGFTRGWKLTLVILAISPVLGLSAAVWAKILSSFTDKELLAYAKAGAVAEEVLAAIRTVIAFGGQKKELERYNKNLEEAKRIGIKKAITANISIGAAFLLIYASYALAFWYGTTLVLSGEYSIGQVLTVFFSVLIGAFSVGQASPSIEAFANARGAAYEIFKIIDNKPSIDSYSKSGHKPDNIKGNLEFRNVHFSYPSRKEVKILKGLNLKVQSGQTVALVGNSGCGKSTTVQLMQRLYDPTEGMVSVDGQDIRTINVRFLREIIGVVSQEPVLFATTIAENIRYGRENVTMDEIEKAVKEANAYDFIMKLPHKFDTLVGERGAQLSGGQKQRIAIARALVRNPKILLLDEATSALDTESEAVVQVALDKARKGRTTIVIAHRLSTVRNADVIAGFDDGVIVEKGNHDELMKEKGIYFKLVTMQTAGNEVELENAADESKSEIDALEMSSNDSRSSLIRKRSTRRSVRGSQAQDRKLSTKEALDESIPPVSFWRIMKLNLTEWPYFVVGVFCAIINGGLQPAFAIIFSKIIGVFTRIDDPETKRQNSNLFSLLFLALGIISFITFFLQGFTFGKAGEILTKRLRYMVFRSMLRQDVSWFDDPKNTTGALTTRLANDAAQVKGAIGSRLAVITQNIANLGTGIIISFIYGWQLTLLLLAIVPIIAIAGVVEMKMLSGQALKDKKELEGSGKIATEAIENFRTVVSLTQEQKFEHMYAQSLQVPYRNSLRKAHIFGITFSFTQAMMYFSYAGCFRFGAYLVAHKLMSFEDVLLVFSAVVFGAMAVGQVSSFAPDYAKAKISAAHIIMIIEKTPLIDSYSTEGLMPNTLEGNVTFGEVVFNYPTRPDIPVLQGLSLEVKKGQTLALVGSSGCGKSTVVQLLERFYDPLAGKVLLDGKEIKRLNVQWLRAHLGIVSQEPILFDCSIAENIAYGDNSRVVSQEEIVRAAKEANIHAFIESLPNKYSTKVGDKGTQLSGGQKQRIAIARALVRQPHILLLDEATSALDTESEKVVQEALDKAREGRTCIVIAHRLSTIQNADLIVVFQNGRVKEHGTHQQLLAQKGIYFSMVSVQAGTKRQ

`CCCCCC(=O)O[C@H]1[C@@H](C)C[C@]2(OC(C)=O)C(=O)/C(C)=C/[C@@H]3[C@H](CC/C(CO)=C/[C@@H]12)C3(C)C`: the Activity in data set [1] came to 78.5%; in data set [3] it was 95%. Binding in data set [2] was put at a Kd of 16.9 µM.
As for `CCCCCC(=O)O[C@H]1[C@@H](C)C[C@]2(OC(C)=O)C(=O)/C(C)=C/[C@@H]3[C@H](CC/C(COC(C)=O)=C/[C@@H]12)C3(C)C`, the Activity in data set [1] is 13.8%; in data set [3], 80%.

Source of the values: ChEMBL document CHEMBL1158894, “A new P-glycoprotein inhibitor from the caper spurge (Euphorbia lathyris)” (J Nat Prod, 2003).
